{"source": "patent US6849645B2", "about": "“Method of increased bioavailability of nutrients and pharmaceutical preparations with tetrahydropiperine and its analogues and derivatives” (priority 2000, dated 2005)", "key": {"[1]": {"assay": "In vitro DPPH radical scavenging method (THC with or without THP)", "type": "biochemical", "protocol": "The bioenhancing potential of THP on the free-radical scavenging properties of topically applied THC was evaluated. In this in vitro DPPH radical scavenging method, the ability of an anti-oxidant to bind and inactivate the 1,1 diphenyl-2-picrylhydrazyl radical, or DPPH, was measured. DPPH is considered an example of a very stable free radical. The control sample contained 0.01% of THC while active samples contained 0.01% of THC with THP concentrations ranging from 0.1%-0.0001%. Additionally, controls containing various concentrations of THP alone were also tested for DPPH binding."}, "Earthworms": {"system": "Earthworms", "assay": "Albendazole induced anthelmintic activity on earthworms (paralysis and death)", "type": "in vivo, earthworm", "protocol": "An experiment to see how tetrahydropiperine enhances the skin permeability of anthelmintic drugs such as albendazole on intestinal worms was conducted. However, as a preliminary study towards this, tests on earthworms were conducted.\nEarthworms were obtained from the Al Ameen College of Pharmacy, Bangalore. Albendazole (Zentel) was obtained from Smith Kline Beecham Pharmaceuticals, Bangalore. The aqueous test solution contained tetrahydropiperine (Tetraperine™, A proprietary product of Sabinsa Corporation, USA) of 0.1% and 0.2% w/v suspended in 0.25% w/v sodium carboxy methyl cellulose.\n1. Effect of Albendazole: Earth worms of similar length and weight were divided into three groups of six worms each. […] The time of onset of paralysis was noted and the death of the worms were observed and recorded as above."}, "[2]": {"assay": "48 hour skin patch test for irritation in humans", "type": "in vivo, human", "protocol": "In another aspect of the present invention, a study was conducted to determine whether a topical composition containing THP (98% purity), at a level of 0.01% and 0.1% by weight, which is preferred topical dose range for the compound, would produce symptoms of topical irritation. A skin patch test using THP in a petrolatum vehicle was conducted on 50 healthy volunteers for 48 hr with reading of the results after 48 hr and 72 hr. […] The irritation score was reported by the supervising physician, a practicing dermatologist, as 0. […] Based on previous experience with the parent compound, THP should not irritate the stomach mucosa at dose level of up to 50 mg per os in an adult healthy volunteer.\nThe 48 hour Repeat Insult Patch Test was used to evaluate skin irritation potential of the test compound.\n50 Male or female subjects aged between 18 and 87 years participated in the study. 5 male and 41 female subjects completed the study. The subjects were in good health and using no medications from 30 days prior to the commencement of the study.\nThe test material was applied occlusively, 0.1% w/w diluted in petrolatum. 0.2 g or 0.2 cc of the test material was dispensed into the skin of the upper back. Paper tape such as 3M Micropore™ or Kendall Tenderskin™ was used for fixation after preparation of the surrounding skin with an adhesion enhancer such as Mastitol™. The subject was instructed to avoid exposure to water or to direct sunlight during the 48 hour observation period. The tape was removed at the test facility at the end of the exposure period and evaluated by trained personnel under the supervision of the principal investigator.\nReactions were scored based on the appearance of erythema or edema immediately following removal of the patch and again at 24 hours following removal. Subjects were instructed to report any delayed reactions occurring after the final reading."}, "[3]": {"system": "tobacco cut worm, Spodoptera litura F.", "assay": "whole plant or invertebrate", "conditions": "48 hours", "protocol": "The tetrahydropiperine was tested against tobacco cut worm, Spodoptera litura F. to determine its possible increased kill rate when used with Fenvalerate—a synthetic pyrethroid.\n• a. Preparation of test solution—0.5 g of the test product was dissolved in 1 ml of Ethanol and made up to 100 ml in standard volumetric flask using suitable emulsifier. This solution contains 5000 ppm a.i. (0.5 percent). Further, serial dilution was made to get 0.25, 0.125 and 0.0625% of the test product. To each of these test solutions, Fenvalerate was added to get 250 ppm of Fenvalerate a.i. in the final volume. For comparison 0.5 percent of Tetrahydropiperine, Ethanol 1.0 percent solution and 250 ppm a.i. of Fenvalerate was used. • b. Bioassay—Laboratory reared 7 day old larvae of tobacco cut worm, Spodoptera litura were used in the experiment. After a series of preliminary tests the concentrations chosen for the experiment were 0.5, 0.25, 0.125 and 0.0625 percent tetrahydropiperine. Fresh castor leaves were dipped for 30 seconds in above concentrations of test and standard compounds and blank solutions. After proper drying, the treated leaves were transferred to plastic containers. To each container 5 larvae were released. This was repeated four times so as to have 20 larvae for each concentration. Larvae in control set were fed with leaves dipped in water. Observations were recorded for larval mortality after 48 hours of exposure. Results"}, "[4]": {"assay": "Solubility (specification of THP)", "type": "physicochemical"}, "[5]": {"conditions": "Albendazole 0.2% + THP 0.1% vs Albendazole 0.2%"}, "[6]": {"conditions": "Albendazole 0.2% + THP 0.1% w/v"}, "[7]": {"conditions": "Albendazole 0.2% + THP 0.2% vs Albendazole 0.2%"}, "[8]": {"conditions": "Albendazole 0.2% + THP 0.2% w/v"}, "[9]": {"conditions": "THP 0.01% and 0.1% by weight in petrolatum, 48 hr patch, read after 48 hr and 72 hr"}}, "note": "“Also recorded” adds a separate entry of the source.", "data": [{"smiles": "O=C(CCCCc1ccc2c(c1)OCO2)N1CCCCC1", "note": "[Tetrahydropiperine, 1-[5-(1,3-Benzodioxol-5 yl)-1-oxo-pentanoyl]-Piperidine]", "values": [{"measurement": "enhancement of the antioxidant properties of THC as compared to THC alone", "setting": "[1]; 0.01% THC with THP 0.1%-0.0001%", "value": "up to 30%"}, {"measurement": "THC bioenhancing activity", "setting": "[1]; 0.01% THC with THP at highest dilution of 0.0001%", "value": "still displayed some beneficial THC bioenhancing activity"}, {"measurement": "anti-oxidant properties (DPPH binding)", "setting": "[1]; THP alone, various concentrations", "value": "did not show any significant anti-oxidant properties"}, {"measurement": "% Reduction in time for Death", "setting": "Earthworms; [5]", "value": 11.03, "unit": "%"}, {"measurement": "% Reduction in time for Paralysis", "setting": "Earthworms; [5]", "value": 12.81, "unit": "%"}, {"measurement": "Time taken in minutes (Mean ± SEM), Death", "setting": "Earthworms; [6]", "value": "98.16 ± 5.19", "unit": "min"}, {"measurement": "Time taken in minutes (Mean ± SEM), Paralysis", "setting": "Earthworms; [6]", "value": "86.31 ± 4.3", "unit": "min"}, {"measurement": "% Reduction in time for Death", "setting": "Earthworms; [7]", "value": 32.32, "unit": "%"}, {"measurement": "% Reduction in time for Paralysis", "setting": "Earthworms; [7]", "value": 37.36, "unit": "%"}, {"measurement": "Time taken in minutes (Mean ± SEM), Death", "setting": "Earthworms; [8]", "value": "74.64 ± 2.98", "unit": "min"}, {"measurement": "Time taken in minutes (Mean ± SEM), Paralysis", "setting": "Earthworms; [8]", "value": "62.01 ± 3.33", "unit": "min"}, {"measurement": "change in time taken for paralysis and death", "setting": "Earthworms; Albendazole 0.2% co-administered with tetrahydropiperine 0.2%", "value": "showed a reduction"}, {"measurement": "% Reduction in time for Death", "setting": "Earthworms; THP 0.1% alone", "value": "Nil"}, {"measurement": "% Reduction in time for Paralysis", "setting": "Earthworms; THP 0.1% alone", "value": "Nil"}, {"measurement": "change in time of paralysis and death compared with standard concentration", "setting": "Earthworms; Tetrahydropiperine 0.1% with albendazole 0.2%, unpaired t test", "value": "no change"}, {"measurement": "skin reaction (erythema, edema, primary contact irritation)", "setting": "[2]; 0.1% w/w in petrolatum, occlusive, 48 hours exposure", "value": "No erythema or edema reactions; also recorded: appears not to produce primary (contact) irritation"}, {"measurement": "irritation score", "setting": "[2]; [9]", "value": 0}, {"measurement": "skin irritation", "setting": "[2]; [9]", "value": "Neither dose caused skin irritation"}, {"measurement": "PERCENT MORTALITY (Mean of 4 replications)", "setting": "[3]; Tetrahydropiperine 0.0625% + 250 ppm a.i. Fenvalerate", "value": 50, "unit": "%"}, {"measurement": "PERCENT MORTALITY (Mean of 4 replications)", "setting": "[3]; Tetrahydropiperine 0.0625% + 250 ppm a.i. Fenvalerate, listed as tetrahydropiperine", "value": "did not enhance the activity"}, {"measurement": "PERCENT MORTALITY (Mean of 4 replications)", "setting": "[3]; Tetrahydropiperine 0.125% + 250 ppm a.i. Fenvalerate", "value": 65, "unit": "%"}, {"measurement": "PERCENT MORTALITY (Mean of 4 replications)", "setting": "[3]; Tetrahydropiperine 0.5% + 250 ppm a.i. Fenvalerate", "value": 100, "unit": "%"}, {"measurement": "PERCENT MORTALITY (Mean of 4 replications)", "setting": "[3]; Tetrahydropiperine 0.5% alone", "value": 0, "unit": "%"}, {"measurement": "PERCENT MORTALITY (Mean of 4 replications)", "setting": "[3]; Tetrahydropiperine 0.5% alone, listed as tetrahydropiperine", "value": "did not show any activity"}, {"measurement": "PERCENT MORTALITY (Mean of 4 replications)", "setting": "[3]; Tetrahydropiperine […] + 250 ppm a.i. Fenvalerate", "value": 85, "unit": "%"}, {"measurement": "Solubility", "setting": "[4]; chloroform", "value": "Soluble"}, {"measurement": "Solubility", "setting": "[4]; methanol", "value": "Soluble"}, {"measurement": "Solubility", "setting": "[4]; water", "value": "insoluble"}]}]}
